According to patent publication US8980848B2, “Flavonoid dimers and their use” (The Hong Kong Polytechnic University, priority 2010, dated 2015):
Where two headings read alike, the source gives them in different places.

Assays:
[1] = Tumor cell line cytotoxicity of flavonoid dimers, LCC6MDR; assay type: cell-based, human; settings: human, LCC6MDR cells, IC50 of compound alone
How it was run: (§1)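 LCC6, LCC6MDR and L929 cells seeded at 1×10^4 cells/well and exposed to graded doses of flavonoid dimers. Incubation 72 hrs at 37° C., 5% CO2. Read-out: % survivors.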

[2] = Tumor cell line cytotoxicity of flavonoid dimers, LCC6; assay type: cell-based, human; settings: human, LCC6 cells, IC50 of compound alone
How it was run: as §1

[3] = Cytotoxicity of flavonoid dimers, L929 mouse fibroblast; assay type: cell-based; settings: mouse, L929 fibroblast cells, IC50 of compound alone, 72 hrs, mouse fibroblast
How it was run: as §1

[4] = system: LdAG83 promastigotes (wild type); experiment: In vitro anti-promastigote activity, LdAG83; assay type: cell-based, Leishmania donovani; settings: read-out: Anti-promastigotes activity (IC50, μM) LdAG83
Protocol: (§2) Cell Lines and Cell Culture. Promastigotes of Leishmania donovani (wild type LdAG83, pentamidine-resistant LdAG83-PentR50, and SSG-resistant Ld39) and Leishmania major [MHOM/IL/67/JERICHO II (Lm50122), from ATCC] were used in this study.
(§3) In Vitro Anti-Promastigote Activity. The viability of promastigotes was determined by the Cell Titer 96° Aqueous Assay (Promega) that employs a tetrazolium compound (MTS, 2-(4,5-Dimethylthiazol-2-yl-)-5-[3-(carboxymethoxy)phenyl]-2-(4-sulfophenyl)-2H-tetrazolium) and electron coupling reagent, phenazine methosulfate (PMS).^7 Promastigotes were seeded into 96-well flat bottom microtiter plate at 1×10^5 cells per well in a final volume of 100 μL medium and incubated with a series concentration of synthetic flavonoid dimers or known antileishmanials. The parasites were incubated at 27° C. for 72 hrs. Fresh solution of 2 mg/mL MTS and 0.92 mg/mL PMS were prepared in a ratio of 20:1 (MTS:PMS). After 72 hrs incubation, 10 μL of MTS:PMS mixture was added into each well of microtiter plate. The plate was then incubated at 27° C. for 4 hrs for color development. After 4 hrs incubation, the OD values were determined at 490 nm using automatic microtiter plate reader (Bio-Rad).

[5] = system: Ld39 promastigotes (SSG-resistant); experiment: In vitro anti-promastigote activity, Ld39; assay type: cell-based, Leishmania donovani; settings: read-out: Anti-promastigotes activity (IC50, μM) Ld39
Protocol: as §2, §3

[6] = system: LdAG83PentR50 promastigotes (pentamidine-resistant); experiment: microbe, parasite or virus in culture; assay type: cell-based, Leishmania donovani; settings: read-out: Anti-promastigotes activity (IC50, μM) LdAG83PentR50
Protocol: as §2
No pentamidine or sodium stibogluconate was added to the L. donovani wild type (LdAG83) and L. major wild type (Lm50122). The mouse macrophage cell line, Raw264.7, was used for the determination of the relative toxicity of the compounds of the invention. […] They were maintained at 37° C. in a humidified atmosphere with 5% CO2. The cells were split constantly after a confluent monolayer has been formed. To split cells, the plate was washed briefly with PBS, treated with 0.05% trypsin-EDTA and harvested by centrifugation.
as §3

[7] = system: Raw264.7 cells; experiment: Cytotoxicity, mouse macrophage Raw264.7; assay type: cell-based
Protocol: (§4) (a) Mouse Macrophage Raw 264.7 and Primary Mouse PEM Cells. The cytotoxicity assay of reference antileishmanial compounds and the compounds of this invention was performed against mouse macrophage cell line, Raw 264.7 and primary mouse PEM cells in order to calculate the therapeutic index (IC50 value for cytotoxicity of the compounds divided by IC50 value for antileishmanial activity of the compounds). The cells were grown in supplemented DMEM media in an atmosphere of 95% air with 5% CO2 at 37° C. In brief, Raw264.7 cells and PEM cells were seeded into 96-well flat bottom microtiter plate at 1×10^4cells and 2×10^4 cells per well in a final volume of 100 μL media, respectively. A graded dose of flavonoid dimers or antileishmanials was added into wells. The plate was incubated at 37° C. for 72 hrs at the atmosphere 5% CO2 in the air. The % of survivors was determined.

[8] = system: Leishmania promastigotes; experiment: Anti-promastigote activity over the Leishmania strains; assay type: cell-based, Leishmania donovani, Leishmania major; settings: for IC50: different Leishmania strains, read-out: Anti-promastigote IC50, range over strains
Protocol: as §2, §3

[9] = molecular target: Pgp (LCC6MDR cells) (Homo sapiens, UniProt P08183); experiment: Cell proliferation assay: Pgp-modulating activity, reversal of anticancer drug resistance in LCC6MDR cells; settings: for EC50: EC50 of compounds for reversing anticancer drug resistance (nM), Paclitaxel; for Therapeutic index: IC50 of compounds for L929/EC50 of compounds for lowering paclitaxel drug resistance; for RF (Relative Fold), cpd at 0.5 μM: RF = (IC50 without modulator)/(IC50 with 0.5 μM modulator), paclitaxel
Chain of Pgp (LCC6MDR cells) (P08183 whole entry): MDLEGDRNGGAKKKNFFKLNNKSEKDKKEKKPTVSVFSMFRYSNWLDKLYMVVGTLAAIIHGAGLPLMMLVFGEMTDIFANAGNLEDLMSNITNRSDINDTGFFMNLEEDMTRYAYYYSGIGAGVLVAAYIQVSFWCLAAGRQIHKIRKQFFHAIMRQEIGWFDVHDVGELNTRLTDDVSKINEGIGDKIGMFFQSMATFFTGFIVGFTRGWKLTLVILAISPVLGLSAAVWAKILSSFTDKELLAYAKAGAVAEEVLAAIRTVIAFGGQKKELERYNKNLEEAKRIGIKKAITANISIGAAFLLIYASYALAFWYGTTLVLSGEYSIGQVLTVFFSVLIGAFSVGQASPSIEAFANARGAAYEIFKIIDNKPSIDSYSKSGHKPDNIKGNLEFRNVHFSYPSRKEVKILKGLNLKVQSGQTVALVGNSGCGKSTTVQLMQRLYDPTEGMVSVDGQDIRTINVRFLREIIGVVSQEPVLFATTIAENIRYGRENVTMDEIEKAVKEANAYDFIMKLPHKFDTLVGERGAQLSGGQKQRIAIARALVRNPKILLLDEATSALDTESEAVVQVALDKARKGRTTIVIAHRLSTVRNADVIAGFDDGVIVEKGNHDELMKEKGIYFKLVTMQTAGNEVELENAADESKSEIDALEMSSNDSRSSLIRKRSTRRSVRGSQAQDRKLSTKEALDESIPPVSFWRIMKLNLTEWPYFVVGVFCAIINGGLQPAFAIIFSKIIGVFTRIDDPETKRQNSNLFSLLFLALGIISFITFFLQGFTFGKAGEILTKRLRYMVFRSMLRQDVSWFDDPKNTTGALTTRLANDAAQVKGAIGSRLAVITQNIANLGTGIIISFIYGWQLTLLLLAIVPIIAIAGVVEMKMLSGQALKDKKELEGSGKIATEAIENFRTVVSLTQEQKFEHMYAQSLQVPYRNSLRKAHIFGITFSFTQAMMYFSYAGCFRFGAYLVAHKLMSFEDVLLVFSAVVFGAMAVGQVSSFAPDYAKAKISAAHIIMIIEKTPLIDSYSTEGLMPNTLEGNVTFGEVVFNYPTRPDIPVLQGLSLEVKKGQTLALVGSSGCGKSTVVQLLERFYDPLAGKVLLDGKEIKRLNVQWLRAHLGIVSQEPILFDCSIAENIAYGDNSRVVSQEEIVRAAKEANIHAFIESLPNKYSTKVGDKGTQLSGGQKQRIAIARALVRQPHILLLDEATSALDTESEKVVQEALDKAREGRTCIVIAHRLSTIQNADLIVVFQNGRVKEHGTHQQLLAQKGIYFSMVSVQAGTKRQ
Protocol: Cell Proliferation Assay. 6,000 cells of LCC6 or LCC6MDR and anticancer drugs (paclitaxel, vinblastine, vincristine, doxorubicin and mitoxantrone) were mixed with or without modulators to a final volume of 200 μL in each well of 96-well plates. […] The plates were then incubated for 5 days at 37° C. […] IC50 values were calculated from the dose-response curves of MTS assays (Prism 4.0).

[10] = system: LCC6MDR cells; experiment: Tumor cell line cytotoxicity of flavonoid dimers, LCC6MDR; assay type: cell-based, human; settings: IC50 of compound alone, 72 hrs
How it was run: as §1

[11] = system: LCC6 cells; experiment: Tumor cell line cytotoxicity of flavonoid dimers, LCC6; assay type: cell-based, human; settings: IC50 of compound alone, 72 hrs
How it was run: as §1

[12] = system: L929 cells; experiment: Cytotoxicity of flavonoid dimers, L929 mouse fibroblast; assay type: cell-based
How it was run: as §1

[13] = system: Lm50122 promastigotes; experiment: In vitro anti-promastigote activity, Lm50122; assay type: cell-based, Leishmania major; settings: Leishmania major, 72 h, read-out: Anti-promastigotes activity (IC50, μM) Lm50122
Protocol: as §2, §3

[14] = Cytotoxicity over LCC6, LCC6MDR and L929 cell lines; assay type: cell-based, human, mouse; settings: human; cancer lines LCC6, LCC6MDR and/or L929
Protocol: (b) Tumor Cell Line Cytotoxicity. The tumor cytotoxicity assays of flavonoid dimers were performed against LCC6, LCC6MDR and L929 cell lines. The cells were grown in supplemented DMEM media in an atmosphere of 95% air and 5% CO2 at 37° C. In brief, LCC6, LCC6MDR and L929 cells were seeded into 96-well flat bottom microtiter plate at 1×10^4 cells per well in a final volume of 100 μL media, respectively. A graded dose of flavonoid dimers was added into wells. The plate was incubated at 37° C. for 72 hrs at the atmosphere 5% CO2 in the air. The % of survivors was determined.

[15] = system: PEM cells; experiment: Cytotoxicity, primary mouse peritoneal elicited macrophage (PEM); assay type: cell-based
Protocol: as §4

[16] = system: Ld39 amastigotes; experiment: In vitro anti-amastigote activity, Ld39 amastigotes in mouse PEM; settings: for IC50: Leishmania donovani, in Mus musculus
Protocol: Peritoneal elicited macrophages (PEM) from mouse were obtained as previously described. A round cover slip (12 mm in diameter) was placed into each well of 24-well culture plate. Mouse macrophages were resuspended in supplemented DMEM media containing 10% heat inactivated fetal bovine serum (v/v), 100 U/mL penicillin and 100 μg/mL streptomycin and seeded into each well at a cell density of 1×10^5 cells per 500 μL. Macrophages were allowed to attach overnight and the non-adherent cells were removed by gentle washing twice with unsupplemented DMEM media. […] Non-internalized promastigotes were removed by washing with unsupplemented DMEM media for two times. Infected macrophages were further incubated in 500 μL supplemented DMEM media in the presence or absence of flavonoid dimers or known antileishmanials for 72 hrs at 37° C. After incubation, the cover slips were stained with Giemsa and the amastigotes inside each macrophage (100 macrophages per treatment) were counted under microscope. The percentage of macrophages infected and number of amastigotes per 100 macrophages was enumerated.
The % of infected macrophage and the number of amastigotes per 100 macrophages were counted by staining with Giemsa.

[17] = Mus musculus, Macrophage, Table 7, cytotoxicity
[18] = cytotoxicity, primary mouse macrophage, 72 hrs
[19] = 72 h, read-out: Ld39 (IC50, mM)
[20] = Leishmania donovani, 72 h, 3 days at 27° C., MTS

SMILES	IC50 at 72 h [1] [µM]	IC50 at 72 h [2] [µM]	IC50 at 72 h [3] [µM]	IC50 ([4]; Leishmania donovani, 72 h) [µM]	IC50 ([5]; Leishmania donovani, 72 h) [µM]	IC50 ([6]; Leishmania donovani, 72 h) [µM]	IC50 ([7]; Mus musculus, RAW264.7, 72 h) [µM]	IC50 [8] [µM]	RF (Relative Fold), cpd at 0.5 μM ([9]; LCC6MDR)	IC50 [15, 17] [µM]	IC50 [15, 18] [µM]	IC50 [16, 19] [mM]	IC50 [5, 20] [µM]	IC50 ([13]; 3 days at 27° C., MTS) [µM]	also measured
O=c1cc(-c2ccc(OCCOCCNCCOCCOc3ccc(-c4cc(=O)c5ccccc5o4)cc3)cc2)oc2ccccc12 [Compound 12a, 1,13-Bis[4′-(4H-chromen-4-on-2-yl)phenyl]-1,4,10,13-tetraoxa-7-azamidecane]	2.4 ± 0.7	3.3 ± 1	5.9 ± 0.6	3.3	2.3	1.1	< 4	< 4	(72.9)						IC50 ([7]; 72 hrs, listed as 12): 2.1 ± 0.9 µM; EC50 ([9]; LCC6MDR): 305 ± 35 nM; Therapeutic index [9]: 19.3
Cc1ccc(S(=O)(=O)N(CCOCCOc2ccc(-c3cc(=O)c4ccccc4o3)cc2)CCOCCOc2ccc(-c3cc(=O)c4ccccc4o3)cc2)cc1 [Compound 25a, 1,13-Bis[4′-(4H-chromen-4-on-2-yl)phenyl]-N-(4-methylbenzenesulfonyl)-1,4,10,13-tetraoxa-7-azamidecane]									(5.8)						IC50 [10]: > 100 µM; IC50 [11]: > 100 µM; IC50 [12]: > 100 µM; IC50 ([4]; 3 days at 27° C., MTS): 100 µM; IC50 ([5]; 3 days at 27° C., MTS): > 100 µM; IC50 ([7]; 72 hrs): > 100 µM
O=c1cc(-c2ccc(OCCOCCN(CCOCCOc3ccc(-c4cc(=O)c5ccccc5o4)cc3)Cc3ccccn3)cc2)oc2ccccc12 [Compound 22, 1,13-Bis[4′-(4H-chromen-4-on-2-yl)phenyl]-N-(2-pyridylmethyl)-1,4,10,13-tetraoxa-7-azamidecane]	29.7 ± 16.4	10 ± 1.2	10	2.3 ± 0.8	2.4 ± 1		53 ± 12.7	1.8 to 2.4	(15.8)						IC50 [13]: 1.8 ± 0.6 µM; Fold lower leishmanicidal activity than compound 21 [8]: about 10 fold
CC(C)(C)OC(=O)N(CCOCCOc1ccc(-c2cc(=O)c3ccccc3o2)cc1)CCOCCOc1ccc(-c2cc(=O)c3ccccc3o2)cc1 [Compound 16a, 1,13-Bis[4′-(4H-chromen-4-on-2-yl)phenyl]-N-(tert-butyloxycarbonyl)-1,4,10,13-tetraoxa-7-azamidecane]	6.2 ± 0.8	8 ± 2.5	< 11.1	3.2	1.6	1.1	> 100		(11.1)						IC50 ([12]; IC50 of compound alone, 72 hrs, mouse fibroblast, read-out: Cytotoxicity (μM) L929): 11.1 µM; IC50 at 72 h [14]: < 8 µM; Ability to restore paclitaxel sensitivity, fold higher than verapamil ([9]; 1.0 μM, LCC6MDR): 24 fold; EC50 ([9]; LCC6MDR): 320 ± 40 nM; Therapeutic index [9]: 34.7
O=C(O)CCC(=O)N(CCOCCOc1ccc(-c2cc(=O)c3ccccc3o2)cc1)CCOCCOc1ccc(-c2cc(=O)c3ccccc3o2)cc1 [Compound 23a, 1,13-Bis[4′-(4H-chromen-4-on-2-yl)phenyl]-N-(4-hydroxy-1,4-dioxobutyl)-1,4,10,13-tetraoxa-7-azamidecane]									(1.1)						IC50 [10]: > 100 µM; IC50 [11]: 78.4 ± 8.1 µM; IC50 ([4]; 3 days at 27° C., MTS): > 100 µM; IC50 ([5]; 3 days at 27° C., MTS): > 100 µM; IC50 ([6]; 3 days at 27° C., MTS): 27 µM; IC50 ([7]; 72 hrs): 65 µM
O=c1cc(-c2ccc(OCCOCCN(CCOCCOc3ccc(-c4cc(=O)c5ccccc5o4)cc3)Cc3ccncc3)cc2)oc2ccccc12 [Compound 21, 1,13-Bis[4′-(4H-chromen-4-on-2-yl)phenyl]-N-(4-pyridylmethyl)-1,4,10,13-tetraoxa-7-azamidecane]	> 100	> 100	26.4 ± 2.7	0.18 ± 0.02	0.19 ± 0.03	0.13 ± 0.04	> 100	0.13 to 0.35	(6.9)	> 88	> 88	0.00063 ± 0.00012			IC50 [13]: 0.35 ± 0.07 µM; Fold lower anti L. donovani promastigote activity than amphotericin B ([8]; L. donovani): 2 fold; % of macrophage infected ([16]; 5 μM, solvent control 100%): 20%; Number of amastigotes per 100 macrophages ([16]; 5 μM, solvent control 887): 48; IC50 ([16]; read-out: IC50 against Ld39 amastigotes): 0.00063 mM
NC[C@@H]1O[C@H](O[C@H]2[C@@H](O)[C@H](O[C@@H]3[C@@H](O)[C@H](N)C[C@H](N)[C@H]3O[C@H]3O[C@H](CO)[C@@H](O)[C@H](O)[C@H]3N)O[C@@H]2CO)[C@H](N)[C@@H](O)[C@@H]1O [Paromomycin, paromomycin, reference compound]						85.5 ± 13.5	> 100	24.5 to 94.5		> 100	> 100	0.041	24.5 ± 2.4	94.5 ± 5.5	IC50 [4, 20]: 62.6 ± 9.5 µM
N=C(N)c1ccc(OCCCCCOc2ccc(C(=N)N)cc2)cc1 [Pentamidine, reference compound]						74.7	30	5.3 to 74.7		30.4 ± 10.5	30.4	> 0.03	5.3 ± 0.8	7.7 ± 1	IC50 [4, 20]: 16.2 µM
CCCCCCCCCCCCCCCCOP(=O)([O-])OCC[N+](C)(C)C [Miltefosine, reference compound]						9.3 ± 2.4	20	4.3 to 17.3		75.3 ± 9.4	75.3 ± 9.4	0.016 ± 0.0064	17.3 ± 2.1	9.8 ± 2.3	
